Results as given in patent US8815846B2, “Family of antichagasics derived from imidazo[4,5-C][1,2,6]thiadiazine 2,2-dioxide” (Universidad de la Republica de Uruguay, priority 2009, dated 2014).
Where two headings read alike, the source gives them in different places. Blank lines part the entries; values can stand above or below the molecule they belong to.

Assays:
[1] = tested on: Trypanosoma cruzi, epimastigote form of the Tulahuen 2 strain; experiment: In vitro growth inhibition of Trypanosoma cruzi epimastigotes (Tulahuen 2 strain), absorbance at 600 nm; type: cell-based; conditions: 120 h, absorbance on day 5, duplicate, error ±3%, read-out: IC50 Anti-T. cruzi activity of the Tulahuen 2 strain
Procedure: The studies of the antichagasic activity were performed in vitro against Trypanosoma cruzi, on the epimastigote form of the Tulahuen 2 strains, (from the strains collection of the Biological Physicochemistry Laboratory, of the Institute of Biological Chemistry, of the Faculty of Science, University of the Republica Oriental of Uruguay, Uruguay). Said strains were cultured at 28° C. in an axenic medium (BHI-tryptose), complemented with 5% of fetal bovine serum. […] The growth of the parasite was followed during 11 days by culture absorbance measurements at 600 nm, proportional to the number of cells present. Before inoculation, a pre-established quantity of each compound of the invention to test was incorporated in the medium, dissolved in DMSO (dimethylsulfoxide). The final concentration of DMSO in the culture medium never exceeded 0.4%, using a blank (absence of product or compound of the invention) with 0.4% DMSO. […] The growth PI was calculated as follows: PI={1−[(Ap−Aop)/(Ac−Aoc)]}×100 where: • Ap=A600 nm of the culture containing the product on day 5. • Aop=A600 nm of the culture containing the product after addition of the culture (day 0). • Ac=A600 nm of the blank on day 5. • Aoc=A600 nm of the blank on day 0. The A600 nm taken on day 5 corresponds to the late exponential phase in the culture growth curve. The determination of the IC50 (half maximal inhibitory concentration) was performed following the growth of the parasite in the absence (control) and presence of increasing concentrations of the corresponding products. The absorbance was measured on day 5 and it was related to the control.

cruzipain = cruzipain (Trypanosoma cruzi, UniProt P25779); experiment: Cruzipain enzyme inhibition (chromogenic substrate Bz-Pro-Phe-Arg-p-NA, absorbance 410 nm); type: biochemical; conditions: 10 min preincubation, pH 7.6, read-out: % Inhibition CP (cruzipain); for inhibition at 25 µM: 25 μM inhibitor; for inhibition at 50 µM: 50 μM inhibitor; for inhibition at 100 µM: 100 μM inhibitor
Procedure: The capacity of inhibiting the cruzipain enzyme was performed according to the protocol detailed below: cruzipain (10 μL) was incubated with a reaction mixture containing a final concentration of 50 mM of Tris-HCl buffer solution, pH 7.6, 10 mM β-mercaptoethanol and 25, 50 or 100 μM of the inhibitor during 10 min at ambient temperature. Later the chromogenic substrate Bz-Pro-Phe-Arg-p-NA was aggregated at a final concentration of 150 μM, and the increase in absorbance at 410 nm was followed for 5 min at temperature in a Beckman DU 650 spectrophotometer. The inhibitors were added dissolved in DMSO and the controls (100% of enzymatic activity) contained the same concentration of solvent. The final volume of the assay is 100 μL. The values represented at least three independent assays. The data obtained for some of the derivatives in table 3 are shown by way of example.

J774 murine macrophages = experiment: Non-specific cytotoxicity against J774 murine macrophages (MTT/formazan); type: cell-based; conditions: for IC50: Mus musculus, read-out: IC50 concentration of compound which reduces the growth of macrophages by 50%; for PC J774 macrophages (%) (percentage of non-specific cytotoxicity): MTT
Procedure: The cellular viability was determined based on the conservation of mitochondrial activity by the MTT/formazan method.

[2] = J774 murine macrophages, 48 hours, average of two evaluations

cruzipain, sequence (P25779 123-467): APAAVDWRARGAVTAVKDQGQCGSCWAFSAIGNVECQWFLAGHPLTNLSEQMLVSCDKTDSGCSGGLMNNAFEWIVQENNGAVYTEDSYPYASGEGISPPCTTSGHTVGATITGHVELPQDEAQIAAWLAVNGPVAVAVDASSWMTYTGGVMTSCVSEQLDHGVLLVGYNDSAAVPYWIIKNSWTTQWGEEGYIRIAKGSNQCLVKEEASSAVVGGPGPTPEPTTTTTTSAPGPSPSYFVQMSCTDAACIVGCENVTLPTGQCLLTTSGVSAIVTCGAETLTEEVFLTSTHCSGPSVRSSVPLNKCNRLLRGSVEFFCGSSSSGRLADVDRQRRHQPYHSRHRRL

IC50 [1]: 20.2 µM
Structure (SMILES): NC1=NS(=O)(=O)Nc2nc(-c3ccccc3F)[nH]c21

IC50 [1]: 22.2 µM
Structure (SMILES): NC1=NS(=O)(=O)Nc2nc(-c3ccsc3)[nH]c21

IC50 [1]: 28.5 µM
Structure (SMILES): CN(C)c1ccc(-c2nc3c([nH]2)C(N)=NS(=O)(=O)N3)cc1

IC50 [1]: 28.9 µM
Structure (SMILES): NC1=NS(=O)(=O)Nc2nc(C3CCCC3)[nH]c21

IC50 [1]: 26.2 µM
Structure (SMILES): CN1c2nc(-c3ccsc3)[nH]c2C(N)=NS1(=O)=O

IC50 [1]: 28.5 µM
Structure (SMILES): CCc1nc2c([nH]1)C(N)=NS(=O)(=O)N2

IC50 [1]: 29.5 µM
Structure (SMILES): NC1=NS(=O)(=O)N(Cc2ccccc2)c2nc(-c3ccccc3)[nH]c21

inhibition at 25 µM (cruzipain): 10% | inhibition at 50 µM (cruzipain): 39% | inhibition at 100 µM (cruzipain): 40%
Structure (SMILES): NC1=NS(=O)(=O)N(Cc2ccccc2)c2nc(C3CCCCC3)n(Cc3ccc(Cl)cc3)c21

inhibition at 100 µM (cruzipain): 31%
Structure (SMILES): NC1=NS(=O)(=O)N(Cc2ccc(Cl)cc2)c2nc(C3CCCCC3)n(Cc3ccc(Cl)cc3)c21

inhibition at 25 µM (cruzipain): 0% | inhibition at 50 µM (cruzipain): 7% | inhibition at 100 µM (cruzipain): 28%
Structure (SMILES): NC1=NS(=O)(=O)N(Cc2ccc(Cl)cc2)c2nc(C3CCCCC3)[nH]c21

IC50 [1]: 7.4 µM
Structure (SMILES): O=C(Cn1ccnc1[N+](=O)[O-])NCc1ccccc1 [Benznidazole, N-benzyl-2-nitro-1-imidazole acetamide, reference compound]

melting point: 263 to 265 °C
Structure (SMILES): NC1=NS(=O)(=O)Nc2nc(C3CCCCC3)[nH]c21 [Example 1a, 4-amino-6-cyclohexyl-1H,5H-imidazo[4,5-c][1,2,6]thiadiazine 2,2-dioxide]

melting point: 238 to 240 °C
Structure (SMILES): NC1=NS(=O)(=O)Nc2nc(C3CCOC3)[nH]c21 (stereo not shown) [Example 1b, 4-amino-6-(3-tetrahydrofuryl)-1H,5H-imidazo[4,5-c][1,2,6]thiadiazine 2,2-dioxide]

melting point: 190 to 192 °C
Structure (SMILES): NC1=NS(=O)(=O)Nc2nc(CCc3ccccc3)[nH]c21 [Example 1c, 4-amino-6-phenethyl-1H,5H-imidazo[4,5-c][1,2,6]thiadiazine 2,2-dioxide]

melting point: 238 to 240 °C
Structure (SMILES): NC1=NS(=O)(=O)N(Cc2ccccc2)c2nc(-c3ccccc3)n(Cc3ccccc3)c21 [Example 3a, 4-amino-1,5-dibenzyl-6-phenylimidazo[4,5-c][1,2,6]thiadiazine 2,2-dioxide]

melting point: 245 to 247 °C
Structure (SMILES): NC1=NS(=O)(=O)N(Cc2ccccc2)c2nc(-c3ccccc3)n(Cc3ccc(Cl)cc3)c21 [Example 3b, 4-amino-1-benzyl-5-(4-chlorobenzyl)-6-phenylimidazo[4,5-c][1,2,6]thiadiazine 2,2-dioxide]

Structure (SMILES): CC(=O)N1CCN(c2ccc(OCC3COC(Cn4ccnc4)(c4ccc(Cl)cc4Cl)O3)cc2)CC1 (stereo not shown) [Ketoconazole, reference compound]
IC50 (J774 murine macrophages; J774, 48 h): < 100 µM

Structure (SMILES): CC1CS(=O)(=O)CCN1N=Cc1ccc([N+](=O)[O-])o1 (stereo not shown) [Nifurtimox, 4-([5 nitrofurfurylidene]-amino)-3-methylthiomorpholine-1,1-dioxide, reference compound]
IC50 [1]: 7.7 µM | IC50 (J774 murine macrophages; J774, 48 h): 316 µM

Structure (SMILES): CN(C/C=C/C#CC(C)(C)C)Cc1cccc2ccccc12 [Terbinafine, reference compound]
PC J774 macrophages (%) (percentage of non-specific cytotoxicity) (J774 murine macrophages; 100 μM compound, 48 hours): 10.0% | PC J774 macrophages (%) (percentage of non-specific cytotoxicity) (J774 murine macrophages; 200 μM compound, 48 hours): 26.0% | PC J774 macrophages (%) (percentage of non-specific cytotoxicity) (J774 murine macrophages; 400 μM compound, 48 hours): 60.0% | IC50 (J774 murine macrophages; [2]): 339 µM

IC50 [1]: 16.2 µM
Structure (SMILES): NC1=NS(=O)(=O)Nc2nc(Cc3ccccc3)[nH]c21 [drawing 7]

IC50 [1]: 16.7 µM
Structure (SMILES): CN1c2nc(-c3ccccc3)[nH]c2C(N)=NS1(=O)=O [drawing 8]

IC50 [1]: 4.5 µM
Structure (SMILES): NC1=NS(=O)(=O)N(Cc2ccccc2)c2nc(-c3ccccc3)n(Cc3ccccc3)c21 [drawing 10]

IC50 [1]: 12.7 µM
Structure (SMILES): NC1=NS(=O)(=O)Nc2nc(C3CCCCC3)[nH]c21 [drawing 11]

IC50 [1]: 20.3 µM
Structure (SMILES): NC1=NS(=O)(=O)Nc2nc(C3CCOC3)[nH]c21 (stereo not shown) [drawing 12]

IC50 [1]: 11.5 µM
Structure (SMILES): NC1=NS(=O)(=O)Nc2nc(CCc3ccccc3)[nH]c21 [drawing 14]

IC50 [1]: 7 µM
Structure (SMILES): NC1=NS(=O)(=O)N(Cc2ccc(Cl)cc2)c2nc(-c3ccccc3F)[nH]c21 [drawing 16]

IC50 [1]: 28.7 µM
Structure (SMILES): NC1=NS(=O)(=O)N(Cc2ccccc2)c2nc(C3CCCCC3)n(Cc3ccccc3)c21 [drawing 17]

IC50 [1]: 10 µM
Structure (SMILES): NC1=NS(=O)(=O)N(Cc2ccccc2)c2nc(-c3ccccc3)n(Cc3ccc(Cl)cc3)c21 [drawing 18]

Structure (SMILES): NC1=NS(=O)(=O)Nc2nc(Cc3ccccc3)[nH]c21 [drawing 19]
PC J774 macrophages (%) (percentage of non-specific cytotoxicity) (J774 murine macrophages; 100 μM compound, 48 hours): 17.6% | PC J774 macrophages (%) (percentage of non-specific cytotoxicity) (J774 murine macrophages; 200 μM compound, 48 hours): 24.3% | PC J774 macrophages (%) (percentage of non-specific cytotoxicity) (J774 murine macrophages; 400 μM compound, 48 hours): 29.4% | IC50 (J774 murine macrophages; [2]): > 400 µM

Structure (SMILES): NC1=NS(=O)(=O)Nc2nc(C3CCCCC3)[nH]c21 [drawing 20]
PC J774 macrophages (%) (percentage of non-specific cytotoxicity) (J774 murine macrophages; 100 μM compound, 48 hours): 1.4% | PC J774 macrophages (%) (percentage of non-specific cytotoxicity) (J774 murine macrophages; 200 μM compound, 48 hours): 8.0% | PC J774 macrophages (%) (percentage of non-specific cytotoxicity) (J774 murine macrophages; 400 μM compound, 48 hours): 11.5% | IC50 (J774 murine macrophages; [2]): > 400 µM

Structure (SMILES): NC1=NS(=O)(=O)N(Cc2ccc(Cl)cc2)c2nc(-c3ccccc3F)[nH]c21 [drawing 21]
PC J774 macrophages (%) (percentage of non-specific cytotoxicity) (J774 murine macrophages; 100 μM compound, 48 hours): 100.0% | PC J774 macrophages (%) (percentage of non-specific cytotoxicity) (J774 murine macrophages; 200 μM compound, 48 hours): 100.0% | PC J774 macrophages (%) (percentage of non-specific cytotoxicity) (J774 murine macrophages; 400 μM compound, 48 hours): 100.0% | IC50 (J774 murine macrophages; [2]): < 100 µM

Structure (SMILES): CN1c2nc(-c3ccccc3)[nH]c2C(N)=NS1(=O)=O [drawing 22]
PC J774 macrophages (%) (percentage of non-specific cytotoxicity) (J774 murine macrophages; 100 μM compound, 48 hours): 22.5% | PC J774 macrophages (%) (percentage of non-specific cytotoxicity) (J774 murine macrophages; 200 μM compound, 48 hours): 77.5% | PC J774 macrophages (%) (percentage of non-specific cytotoxicity) (J774 murine macrophages; 400 μM compound, 48 hours): 99.0% | IC50 (J774 murine macrophages; [2]): 128 µM

inhibition at 25 µM (cruzipain): 0% | inhibition at 50 µM (cruzipain): 30% | inhibition at 100 µM (cruzipain): 58%
Structure (SMILES): NC1=NS(=O)(=O)N(Cc2ccccc2)c2nc(C3CCCCC3)n(Cc3ccccc3)c21 [drawing 23]

inhibition at 25 µM (cruzipain): 7% | inhibition at 50 µM (cruzipain): 30% | inhibition at 100 µM (cruzipain): 30%
Structure (SMILES): NC1=NS(=O)(=O)N(Cc2ccc(Cl)cc2)c2nc(-c3ccccc3F)[nH]c21 [drawing 27]
